Values quoted from earlier work, collected in patent US12203859B2, “Device for detecting contamination with photosynthesis inhibitor and method for detecting contamination with photosynthesis inhibitor” (National Institute for Environmental Studies, priority 2019, dated 2025).

Test system: marine phytoplankton
Details: pesticides that directly inhibit photosynthesis of plants

| Structure (SMILES) | fluorescence quantum efficiency of marine phytoplankton |
| --- | --- |
| CN(C)C(=O)Nc1ccc(Cl)c(Cl)c1 [Diuron] | decreases |
| CSc1nc(NC2CC2)nc(NC(C)(C)C)n1 [Irgarol] | decreases |
